The values below come from patent publication US20020128231A1 (priority 2000, published 2002).

For one data set, the target named is P-glycoprotein (Homo sapiens, UniProt P08183). The data set can be described thus: Rhodamine 123 transport assay across HCT-8 cell monolayers. The conditions noted are these: compound 10 μM, Rh123 15 μM, HCT-8 cells; for inhibition at 10 μM: human, HCT-8 cell monolayers in Transwell dishes, probe Rhodamine 123 (15 μM), % Inhibition of R123 Transport.
The subject of data set [1] is MDR1-expressing NIH 3T3 cells. The data set can be described thus: Cytotoxicity (MTT) assay: modulation of drug cytotoxicity in multidrug resistant cells. The conditions noted are these: compound 5 μM; 50 nM doxorubicin; 72 hours; MTT.
Description: Cytotoxicity assays were performed with many of the compounds of Formula I to verify their usefulness as inhibitors of P-gp.
Parental NIH3T3 Swiss mouse embryo cell line was obtained from American Type Culture Collection and was grown in Dulbecco's Modified Eagles Medium supplemented with 4.5 g/L glucose, 10% fetal bovine serum, 2 mM L-glutamine, and 0.01 mg/ml gentamicin. […] All cells were maintained in a humidified atmosphere with 5% CO2 at 37° C.
Parental and MDR1-expressing NIH 3T3 cells were plated at a density of 2.5-3.0×10^3 cells/well in 96-well microtiter plates and were exposed to 50 nM of doxoriubicin, 7.5 nM vinblastine, 75 nM colchicine or 300 nM paclitaxel for 72 hours. Cell viability was determined with the colorimetric MTT (3-(4,5-dimethylthiazol-2-yl)-2,5-diphenyl tetrazolium) assay as previously described (Mosmann T., J. Immunol. Methods, 65: 55-63 (1983); Hansen M. B. et al., J. Immunol. Methods, 119: 203-210 (1989)) and the absorbance was measured at 570 nm.

The structures appear in SMILES notation.

Chain of P-glycoprotein (P08183 whole entry): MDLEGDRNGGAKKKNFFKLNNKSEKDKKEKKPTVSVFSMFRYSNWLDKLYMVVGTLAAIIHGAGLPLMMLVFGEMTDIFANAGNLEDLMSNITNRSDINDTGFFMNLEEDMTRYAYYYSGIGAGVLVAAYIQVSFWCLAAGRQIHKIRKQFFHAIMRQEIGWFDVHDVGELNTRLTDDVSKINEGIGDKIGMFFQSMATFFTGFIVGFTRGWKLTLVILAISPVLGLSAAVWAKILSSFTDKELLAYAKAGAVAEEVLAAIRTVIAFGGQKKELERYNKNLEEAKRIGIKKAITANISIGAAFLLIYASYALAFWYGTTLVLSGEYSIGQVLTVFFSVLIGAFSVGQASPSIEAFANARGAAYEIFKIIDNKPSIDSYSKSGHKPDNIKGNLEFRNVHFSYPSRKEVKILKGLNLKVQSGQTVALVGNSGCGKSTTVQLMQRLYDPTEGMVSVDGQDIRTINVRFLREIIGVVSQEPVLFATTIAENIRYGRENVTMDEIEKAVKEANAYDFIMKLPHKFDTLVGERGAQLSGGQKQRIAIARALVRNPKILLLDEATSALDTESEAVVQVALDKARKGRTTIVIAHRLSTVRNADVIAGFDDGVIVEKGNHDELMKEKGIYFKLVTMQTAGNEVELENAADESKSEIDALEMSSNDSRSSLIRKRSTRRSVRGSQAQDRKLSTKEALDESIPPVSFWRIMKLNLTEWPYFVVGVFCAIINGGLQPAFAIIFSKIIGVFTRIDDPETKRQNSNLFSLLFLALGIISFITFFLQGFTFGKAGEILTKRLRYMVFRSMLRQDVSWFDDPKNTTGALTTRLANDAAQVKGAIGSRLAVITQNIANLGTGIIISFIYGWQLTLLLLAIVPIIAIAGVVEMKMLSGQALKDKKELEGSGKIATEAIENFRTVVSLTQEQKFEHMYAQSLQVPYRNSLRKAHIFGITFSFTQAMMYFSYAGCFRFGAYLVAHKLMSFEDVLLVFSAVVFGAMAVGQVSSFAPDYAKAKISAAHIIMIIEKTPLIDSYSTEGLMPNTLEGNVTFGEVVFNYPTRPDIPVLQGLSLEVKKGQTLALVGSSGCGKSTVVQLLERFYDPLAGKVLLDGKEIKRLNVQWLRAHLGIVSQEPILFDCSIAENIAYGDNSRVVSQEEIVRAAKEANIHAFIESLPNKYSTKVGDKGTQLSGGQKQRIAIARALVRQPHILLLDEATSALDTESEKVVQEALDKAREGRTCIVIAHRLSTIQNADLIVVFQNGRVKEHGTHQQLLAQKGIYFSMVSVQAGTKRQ

`COCC1C(CCOS(C)(=O)=O)c2cc(OC)c(OC)cc2C1c1ccc(OC)c(OC)c1` (centres unmarked) [AV-177, methanesulfonic acid 2-[3-(3,4-dimethoxyphenyl)-5,6-dimethoxy-2-methoxymethyl-indan-1-yl] ethyl ester]: the “% Inhibition of R123 Transport” value on P-glycoprotein amounted to 9.4%. Moreover, the “Modulation of Drug Resistance (percentage increase in doxorubicin cytotoxicity in the presence of the compounds versus in their absence)” value in data set [1] was determined as 40.32%.

As for `COCC1C(CCN2CCN(Cc3ccccc3)CC2)c2cc(OC)c(OC)cc2C1c1ccc(OC)c(OC)c1` (centres unmarked) [AV-178, 1-benzyl-4-{2-[3-(3,4-dimethoxyphenyl)-5,6-dimethoxy-2-methoxymethyl-indan-1-yl]-ethyl}-piperazine], at P-glycoprotein, the inhibition (usually the drop in the measured response relative to a control, in per cent) at 10 μM is 79%. For the same molecule, the “Modulation of Drug Resistance (percentage increase in doxorubicin cytotoxicity in the presence of the compounds versus in their absence)” value in data set [1] was 54.50%.

In the case of `COc1ccc(C2c3cc(OC)c(OC)cc3C(CC(=O)N3CCN(C(=O)OCc4ccccc4)CC3)C2C(=O)N2CCN(C(=O)OCc3ccccc3)CC2)cc1OC` (centres unmarked) [AV-179, 4-{2-[3-(3,4-dimethoxyphenyl)-5,6-dimethoxy-2-(piperazine-1-carboxylic acid benzyl ester)-indan-1-yl]-acetyl}-piperazine-1-carboxylic acid benzyl ester], the “% Inhibition of R123 Transport” value on P-glycoprotein turned out to be 87.7%. In data set [1], the “Modulation of Drug Resistance (percentage increase in doxorubicin cytotoxicity in the presence of the compounds versus in their absence)” value came to 58.07%.

Consider `COc1ccc(C2c3cc(OC)c(OC)cc3C(CC(=O)N3CCN(C(=O)OC(C)(C)C)CC3)C2C(=O)N2CCN(C(=O)OC(C)(C)C)CC2)cc1OC` (centres unmarked) [AV-180, 4-{2-[3-(3,4-dimethoxyphenyl)-5,6-dimethoxy-2-(piperazine-1-carboxylic acid t-butyl ester)-indan-1-yl]-acetyl}-piperazine-1-carboxylic acid t-butyl ester], for which the “% Inhibition of R123 Transport” value on P-glycoprotein was found to be 40.4%. Moreover, the “Modulation of Drug Resistance (percentage increase in doxorubicin cytotoxicity in the presence of the compounds versus in their absence)” value in data set [1] worked out at 42.84%.

Take `COc1ccc(C2c3cc(OC)c(OC)cc3C(CC(=O)N(C)C)C2C(=O)N(C)C)cc1OC` (centres unmarked) [AV-181, 1-(3,4-dimethoxyphenyl)-3-dimethylcarbamoylmethyl-5,6-dimethoxy-indan-2-carboxylic acid dimethyl amide]: the inhibition at 10 μM on P-glycoprotein was 6%. Also, the “Modulation of Drug Resistance (percentage increase in doxorubicin cytotoxicity in the presence of the compounds versus in their absence)” value in data set [1] is on record as 6.13%.

`CCN(CC)C(=O)CC1c2cc(OC)c(OC)cc2C(c2ccc(OC)c(OC)c2)C1C(=O)N(CC)CC` (centres unmarked) [AV-182, 1-(3,4-dimethoxyphenyl)-3-diethylcarbamoylmethyl-5,6-dimethoxy-indan-2-carboxylic acid diethyl amide] showed an inhibition at 10 μM against P-glycoprotein of 25%. The “Modulation of Drug Resistance (percentage increase in doxorubicin cytotoxicity in the presence of the compounds versus in their absence)” value in data set [1] amounted to 23.87%.

Consider `COc1ccc(N2CCN(CCC3c4cc(OC)c(OC)cc4C(c4ccc(OC)c(OC)c4)C3CN3CCN(c4ccc(OC)cc4)CC3)CC2)cc1` (centres unmarked) [AV-183, 2-{3-(3,4-dimethoxyphenyl)-5,6-dimethoxy-2-[4-(4-methoxy)-piperazin-1-yl-methyl]-indan-1-yl}-1-[4-(4-methoxyphenyl)-piperazin-1-yl]-ethane], for which the “% Inhibition of R123 Transport” value on P-glycoprotein is listed as 63.0%. Also, the “Modulation of Drug Resistance (percentage increase in doxorubicin cytotoxicity in the presence of the compounds versus in their absence)” value in data set [1] worked out at 52.24%.

`CCOc1ccccc1N1CCN(CCC2c3cc(OC)c(OC)cc3C(c3ccc(OC)c(OC)c3)C2CN2CCN(c3ccccc3OCC)CC2)CC1` (centres unmarked) [AV-184, 2-{3-(3,4-dimethoxyphenyl)-5,6-dimethoxy-2-[4-(2-ethoxyphenyl)-piperazin-1-yl-methyl]-indan-1-yl}-1-[4-(2-ethoxyphenyl)-piperazin-1-yl]-ethane]: the inhibition at 10 μM on P-glycoprotein is 53.7%. Moreover, the “Modulation of Drug Resistance (percentage increase in doxorubicin cytotoxicity in the presence of the compounds versus in their absence)” value in data set [1] turned out to be 50.58%.

The molecule `COc1ccc(C2c3cc(OC)c(OC)cc3C(CC(=O)N3CCNCC3)C2C(=O)N2CCNCC2)cc1OC` (centres unmarked) [AV-185, 2-[3-(3,4-dimethoxyphenyl)-5,6-dimethoxy-2-(piperazine-1-carbonyl)-indan-1-yl]-1-piperazin-1-yl-ethanone] showed an inhibition at 10 μM at P-glycoprotein of 25.1%. The “Modulation of Drug Resistance (percentage increase in doxorubicin cytotoxicity in the presence of the compounds versus in their absence)” value in data set [1] is 18.48%.

In the case of `COc1ccc(C2c3cc(OC)c(OC)cc3C(CCN3CCN(c4ccc(Cl)cc4)CC3)C2CN2CCN(c3ccc(Cl)cc3)CC2)cc1OC` (centres unmarked) [AV-186, 2-{3-(3,4-dimethoxyphenyl)-5,6-dimethoxy-2-[4-(4-chlorophenyl)-piperazin-1-yl-methyl]-indan-1-yl}-1-[4-(4-chlorophenyl)-piperazin-1-yl]-ethane], the inhibition at 10 μM on P-glycoprotein was 65.8%. In data set [1], the “Modulation of Drug Resistance (percentage increase in doxorubicin cytotoxicity in the presence of the compounds versus in their absence)” value is reported as 64.87%.

Regarding `CCN1CCN(C(=O)CC2c3cc(OC)c(OC)cc3C(c3ccc(OC)c(OC)c3)C2C(=O)N2CCN(CC)CC2)CC1` (centres unmarked) [AV-187, 2-[3-(3,4-dimethoxyphenyl)-5,6-dimethoxy-2-(4-ethylpiperazine-1-carbonyl)-indan-1-yl]-1-(4-ethylpiperazin-1-yl)-ethanone], the inhibition at 10 μM on P-glycoprotein stood at 2.7%. In data set [1], the “Modulation of Drug Resistance (percentage increase in doxorubicin cytotoxicity in the presence of the compounds versus in their absence)” value was determined as 23.50%.

With `COc1ccc(C2c3cc(OC)c(OC)cc3C(CC(=O)N3CCN(c4ccccc4OC)CC3)C2C(=O)N2CCN(c3ccccc3OC)CC2)cc1OC` (centres unmarked) [AV-188, 2-{3-(3,4-dimethoxyphenyl)-5,6-dimethoxy-2-[4-(2-methoxyphenyl)-piperazin-1-carbonyl]-indan-1-yl}-1-[4-(2-methoxy-phenyl)-1-yl]-ethanone], at P-glycoprotein, the “% Inhibition of R123 Transport” value turned out to be 87.6%. Also, in data set [1], the “Modulation of Drug Resistance (percentage increase in doxorubicin cytotoxicity in the presence of the compounds versus in their absence)” value worked out at 75.39%.

At P-glycoprotein, `CCCN(CCC)C(=O)CC1c2cc(OC)c(OC)cc2C(c2ccc(OC)c(OC)c2)C1C(=O)N(CCC)CCC` (centres unmarked) [AV-189, 1-(3,4-dimethoxyphenyl)-3-dipropylcarbamoylmethyl-5,6-dimethoxy-indan-2-carboxylic acid dipropyl amide] came in with an inhibition at 10 μM of 60%. Also, the “Modulation of Drug Resistance (percentage increase in doxorubicin cytotoxicity in the presence of the compounds versus in their absence)” value in data set [1] amounted to 64.78%.

The molecule `CCCCN(CCCC)C(=O)CC1c2cc(OC)c(OC)cc2C(c2ccc(OC)c(OC)c2)C1C(=O)N(CCCC)CCCC` (centres unmarked) [AV-190, 1-(3,4-dimethoxyphenyl)-3-dibutylcarbamoylmethyl-5,6-dimethoxy-indan-2-carboxylic acid dibutyl amide] showed an inhibition at 10 μM on P-glycoprotein of 52.2%. Further, in data set [1], the “Modulation of Drug Resistance (percentage increase in doxorubicin cytotoxicity in the presence of the compounds versus in their absence)” value is 65.35%.

On P-glycoprotein, `COc1ccc(C2c3cc(OC)c(OC)cc3C(CC(=O)N(CC(C)C)CC(C)C)C2C(=O)N(CC(C)C)CC(C)C)cc1OC` (centres unmarked) [AV-191, 1-[(diisobutylcarbamoyl)methyl]-3-(3,4-dimethoxyphenyl)-5,6-dimethoxy-indan-2-carboxylic acid diisobutylamide] showed an inhibition at 10 μM of 64.9%. The “Modulation of Drug Resistance (percentage increase in doxorubicin cytotoxicity in the presence of the compounds versus in their absence)” value in data set [1] is on record as 63.49%.

At P-glycoprotein, `CCCCC(CC)CN(CC(CC)CCCC)C(=O)CC1c2cc(OC)c(OC)cc2C(c2ccc(OC)c(OC)c2)C1C(=O)N(CC(CC)CCCC)CC(CC)CCCC` (centres unmarked) [AV-192, 1-{[bis(2-ethylhexyl)carbamoyl]methyl}-3-(3,4-dimethoxyphenyl)-5,6-dimethoxy-indan-2-carboxylic acid bis(2-ethylhexyl) amide] came in with an inhibition at 10 μM of 20.2%. In data set [1], the “Modulation of Drug Resistance (percentage increase in doxorubicin cytotoxicity in the presence of the compounds versus in their absence)” value was determined as 19.61%.
